Results taken from ChEMBL document CHEMBL1667849, “Identification of small molecular inhibitors for Ero1p by structure-based virtual screening” (Bioorg Med Chem Lett, 2011).
pIC50: −log10 of the molar value.

How the values were obtained:
[1] = Inhibition of yeast Ero1p by fluorescence assay; design: species or system Saccharomyces cerevisiae
ERO1-like protein alpha = molecular target: T1, ERO1-like protein alpha (Homo sapiens, UniProt Q96HE7); test: Inhibition of human Ero1-Lalpha
T1 sequence (Q96HE7 whole entry): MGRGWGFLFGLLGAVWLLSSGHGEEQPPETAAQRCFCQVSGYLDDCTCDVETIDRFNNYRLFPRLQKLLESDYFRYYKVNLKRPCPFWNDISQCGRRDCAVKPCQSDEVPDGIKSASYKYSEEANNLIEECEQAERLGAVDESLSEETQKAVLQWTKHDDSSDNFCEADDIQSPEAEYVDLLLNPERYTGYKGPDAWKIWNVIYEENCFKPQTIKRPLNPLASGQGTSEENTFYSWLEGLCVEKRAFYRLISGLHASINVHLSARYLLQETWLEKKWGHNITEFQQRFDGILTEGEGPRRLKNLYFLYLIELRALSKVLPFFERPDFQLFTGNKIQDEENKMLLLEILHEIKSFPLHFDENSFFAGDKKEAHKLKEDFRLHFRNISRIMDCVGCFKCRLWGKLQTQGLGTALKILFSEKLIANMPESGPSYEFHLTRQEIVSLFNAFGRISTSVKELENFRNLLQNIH

COc1cc(/C=C2\C(=O)NN(c3ccc(Br)cc3)C2=O)cc(Br)c1OC(C)=O
pIC50 [1]: 4.51 | pIC50 (ERO1-like protein alpha): 5.52

COc1cc(Cl)cc(/C=C2\C(=O)NN(c3ccc(F)c(Cl)c3)C2=O)c1O
pIC50 (ERO1-like protein alpha): 4.42

COc1ccc(/C=C2/C(=O)N(c3ccc(Cl)cc3)N=C2C(F)(F)F)cc1OC
pIC50 [1]: 4.14 | pIC50 (ERO1-like protein alpha): 5.10

COc1cc(/C=C2/N=C(c3ccc4ccccc4c3)OC2=O)ccc1OC(C)=O
pIC50 (ERO1-like protein alpha): 4.27

O=C(Nc1sc(-c2ccccc2)cc1C(=O)O)c1ccc(Br)cc1
pIC50 (ERO1-like protein alpha): 4.17

O=C(N/N=C1\C(=O)N(Cc2cccc([N+](=O)[O-])c2)c2ccccc21)c1cc2ccccc2cc1O
pIC50 (ERO1-like protein alpha): 3.97

O=C(Cn1cnc([N+](=O)[O-])c1[N+](=O)[O-])Nc1cc(Oc2ccccc2)cc([N+](=O)[O-])c1
pIC50 [1]: < 3.52 | pIC50 (ERO1-like protein alpha): 5.00

O=C(Nc1cc2c(cc1C(=O)O)C(=O)c1ccccc1C2=O)c1ccc([N+](=O)[O-])cc1
pIC50 (ERO1-like protein alpha): 4.43

O=C1NC(=O)N(c2ccc(Cl)cc2)C(=O)/C1=C/c1ccc(O)c(O)c1
pIC50 (ERO1-like protein alpha): 4.96

CCOc1cc(/C=C2\C(=O)NC(=O)N(c3ccc(C)cc3)C2=O)ccc1OCCOc1cccc2ccccc12
pIC50 (ERO1-like protein alpha): 4.77

COc1ccc(N2C(=O)NC(=O)/C(=C\c3ccc(OCCOc4cccc(OC)c4)c(OC)c3)C2=O)cc1
pIC50 (ERO1-like protein alpha): 4.62

O=C1NC(=O)N(c2ccc(Cl)cc2)C(=O)/C1=C/Nc1cccc(O)c1
pIC50 (ERO1-like protein alpha): 4.10
